Data: patent US11708357B2, “Crystal form of pyrrolidinyl urea derivative and application thereof” (ZHANGZHOU PIEN TZE HUANG PHARMACEUTICAL CO., LTD., priority 2020, dated 2023)

Legend:
CYP2C9 = biological target: T1, CYP2C9 (Homo sapiens, UniProt P11712); assay: Cytochrome P450 isozyme inhibitory activity test, CYP2C9; type: in vitro ADME; conditions: liver microsomes; human liver microsome
T1 construct: from tissue; host or cells: human liver microsomes
Protocol: The inhibitory activities of the test compound on different subtypes of human cytochrome P450 isozymes were determined. The test compound, standard inhibitor (100× final concentration), and a mixed substrate working solution were prepared; the microsome frozen in −80° C. refrigerator was thawed. […]

[1] = Plasma protein binding rate (PPB) test, SD rat plasma; type: in vitro ADME; conditions: 2 μM, dialysis 37° C. 4 hours
Protocol: The protein binding rates of the test compound in the plasma of humans and SD rats were determined.
796 μL of blank plasma from humans and SD rats (plasma purchased from BioreclamationIVT) were taken, 4 μL of working solution of the test compound (400 μM) or warfarin working solution (400 μM) was added and the final concentration of the test compound or warfarin was 2 μM. The sample was mixed thoroughly. […] All samples were analyzed by LC/MS/MS after protein precipitation, and the plasma protein unbound rate, binding rate and recovery rate was calculated according to the following formula: % unbound rate=100*free compound concentration at the membrane buffer side/total compound concentration at the membrane plasma side, % protein binding rate=100−% unbound rate, % recovery rate=100*(free compound concentration at the membrane buffer side+total compound concentration at the membrane plasma side)/total compound concentration before dialysis.

[2] = In vivo pharmacokinetic study in beagle dogs after single administration; conditions: male, dog, plasma, 2 mg/kg, 2 mpk intravenous injection
Protocol: Male beagle dogs were used as test animals, the concentration of the compound in blood after single administration was determined to evaluate the pharmacokinetic behavior.
Beagle dogs (Male, 6-12 kg, more than 6 months, Beijing Marshall Biotechnology Co., Ltd.).
The objective of the test was to study the pharmacokinetic characteristics of the test compound in non-rodent after intravenous injection and oral administration. In the experiment, the test compound was prepared into a clear solution or homogeneous suspension and administered to the beagle dogs by single intravenous injection or oral administration. In the intravenous injection group, the menstruum was a certain proportion of dimethyl sulfoxide in HP-β-cyclodextrin solution or a certain proportion of ethanol, polyethylene glycol 400 and physiological saline solution, the mixture was vortexed and subjected to ultrasonic treatment to prepare 2 mg/mL clear solution, then filtered with microporous membrane for later use; in the oral administration group, the menstruum was a certain proportion of dimethyl sulfoxide in HP-β-cyclodextrin solution or a certain proportion of sodium carboxymethyl cellulose solution, the test compound was mixed with the menstruum, vortexed and subjected to ultrasonic treatment to prepare 2 mg/mL homogeneous suspension for later use. After 2 mg/kg intravenous administration or 10 mg/kg oral administration to the Beagle dogs, a certain amount of whole blood samples were collected, centrifuged at 3000 g for 10 minutes, and the supernatant was separated to obtain plasma samples; then an acetonitrile solution containing internal standard with a volume 10 times that of the plasma sample was added to precipitate proteins, and then centrifuged; the supernatant was separated for analysis; LC-MS/MS analysis method was used to quantitatively analyze the blood drug concentration, and Phoenix WinNonlin software (Pharsight, USA) was used to calculate the pharmacokinetic parameters, such as peak concentration, time to peak concentration, clearance rate, half-life, area under the concentration-time curve, bioavailability, etc.
Among them, C0 is the initial concentration, T1/2 is the elimination half-life, Vdss is the steady-state apparent volume of distribution, Cl is the total clearance rate, AUC0-inf is the area under the plasma drug concentration-time curve from time 0 to infinity, Cmax is the peak concentration, Tmax is the time to peak concentration.

T1 sequence (P11712 whole entry): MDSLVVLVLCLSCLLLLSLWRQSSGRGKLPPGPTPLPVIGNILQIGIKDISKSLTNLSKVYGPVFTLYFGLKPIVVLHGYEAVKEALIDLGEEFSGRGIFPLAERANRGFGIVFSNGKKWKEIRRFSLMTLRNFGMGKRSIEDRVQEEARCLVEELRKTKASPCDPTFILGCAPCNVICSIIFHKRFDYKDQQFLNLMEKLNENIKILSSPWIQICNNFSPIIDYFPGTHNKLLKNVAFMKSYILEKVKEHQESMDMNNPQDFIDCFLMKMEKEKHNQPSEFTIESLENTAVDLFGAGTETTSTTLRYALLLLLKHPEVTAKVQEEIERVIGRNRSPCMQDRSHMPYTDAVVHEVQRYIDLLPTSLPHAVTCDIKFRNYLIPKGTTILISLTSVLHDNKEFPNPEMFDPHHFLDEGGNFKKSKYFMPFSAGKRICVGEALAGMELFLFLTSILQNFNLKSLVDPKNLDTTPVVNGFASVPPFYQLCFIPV

IC50 at 10 min (CYP2C9): 39.1 µM
Plasma protein unbound rate, SD rat plasma [1]: 7.1%
AUC(0-inf) [2]: 4.66 µM·h
C0 [2]: 8.46 µM
clearance [2]: 12.4 mL/min/kg
half-life [2]: 26.4 min
Vd ([2]; read-out: Vdss): 0.49 L/kg
Structure (SMILES): COCCN1C[C@@H](n2ccc(F)c2)[C@H](NC(=O)Nc2c(C)c(-c3cnc(C4(F)COC4)nc3)nn2-c2ccccc2)C1 [Compound of formula (I)]
